Columns and labels:
Pyrenophora teres = assay: In vivo test, helminthosporium disease of barley, preventive treatment 7 days before infection (Colby); conditions: graded 10 days after infection
Description: In vivo test of the combination of ICIA5504 with iprodione with respect to helminthosporium disease of barley by preventive treatment 7 days before infection.
The fungicides are used at the following doses:
The young barley plants (var. Express) which are 12 days old (first leaf developed stage) are treated with the experimental fungicides at the doses indicated above in a slurry volume of 250 l/ha (3 repeats/dose). Seven days after the treatment, the young barley plants are infected with a suspension of Pyrenophora teres spores (10,000 spores/ml). The young plants are incubated for 48 hours at 20° C., 100% relative humidity (RH). Next, the plants are transferred to a greenhouse at 20° C., 70-80% RH under natural light. The grading of the disease is carried out ten days after infection by estimating the leaf surface area contaminated on the first leaf (10 young plants/pot).
By comparing with the control (non-treated-contaminated) a percentage efficacy is calculated. The synergy is then quantified by using the Colby model.

Alternaria brassicae = assay: In vivo test, alternaria disease of radish, preventive treatment 24 hours before infection (Tammes isobole); conditions: radish seedlings, spray 24 h before infection, reading 6 days after infection
Description: In vivo test of the combination of ICIA5504 with iprodione with respect to alternaria disease of radish (Alternaria brassicae) by preventive treatment 24 hours before infection. A suspension comprising the compounds A and B in a liquid mixture composed of a surface-active agent (oleate of polyoxyethylenated derivative of sorbitan) and water is prepared. The component B is iprodione; the A/B ratio is 0.25, 0.5, 1, 2 or 4. Radish seedlings (variety Pernot), are grown in small pots. When these seedlings are 10-12 days old (cotyledon, 1st leaf stage), they are treated by spraying with the above suspension. […] After 24 hours, each seedling is infected by spraying with an aqueous suspension of spores of Alternaria brassica, which suspension is obtained from an in vitro culture of the fungus. These spores are suspended at a concentration of 40,000 units per cm^3 of inoculum. Infection is carried out by spraying the inoculum at the top surface of the leaves. The infected seedlings are then incubated for six days at 18-20° C. at 90-100% relative humidity under natural light. Reading is carried out 6 days after infection, in comparison with the control seedlings. […]

SMILES	Observed efficacy (Pyrenophora teres; iprodione 12.5 g/ha alone) [%]	Observed efficacy (Pyrenophora teres; iprodione 25 g/ha alone) [%]	Observed efficacy (Pyrenophora teres; iprodione 50 g/ha alone) [%]	Observed efficacy (Pyrenophora teres; iprodione 100 g/ha alone) [%]	Observed efficacy (Pyrenophora teres; iprodione 200 g/ha alone) [%]	Observed efficacy (Pyrenophora teres; iprodione 400 g/ha alone) [%]	Observed efficacy (Pyrenophora teres; iprodione 800 g/ha alone) [%]	dose of A alone necessary for the destruction of 80% of the parasite (Alternaria brassicae)	Observed efficacy (Pyrenophora teres; ICIA5504 1.5 g/ha alone) [%]	Observed efficacy (Pyrenophora teres; ICIA5504 3.1 g/ha alone) [%]	Observed efficacy (Pyrenophora teres; ICIA5504 6.2 g/ha alone) [%]	Observed efficacy (Pyrenophora teres; ICIA5504 12.5 g/ha alone) [%]	Observed efficacy (Pyrenophora teres; ICIA5504 25 g/ha alone) [%]	Observed efficacy (Pyrenophora teres; ICIA5504 50 g/ha alone) [%]	Observed efficacy (Pyrenophora teres; ICIA5504 100 g/ha alone) [%]	Observed efficacy (Pyrenophora teres; ICIA5504 200 g/ha alone) [%]
CC(C)NC(=O)N1CC(=O)N(c2cc(Cl)cc(Cl)c2)C1=O [iprodione]	15.79	7.02	37.72	35.09	47.37	50.88	59.65									
CO/C=C(/C(=O)OC)c1ccccc1Oc1cc(Oc2ccccc2C#N)ncn1 [ICIA5504, methyl (E)-2-{2-[6-(2-cyanophenoxy)pyrimidin-4-yloxy]phenyl}-3-methoxyacrylate]								115 ppm (mg/l)	0	17.54	34.21	59.21	76.75	83.86	81.67	92.72
